According to the supplement of paper PMC10307832:

How the values were obtained:
Experiment in all cases: relative viability (nuclei count vs DMSO), 5 days (fraction); higher = more cells survive
[1] = compound: CC1=C(C(=NN1)C)CC2=C(C3=C(S2)N(C(=O)N(C3=O)C)CC(C)C)C(=O)N4C[C@@H](CO4)O + CS(=O)(=O)N1CCN(Cc2cc3nc(-c4cccc5[nH]ncc45)nc(N4CCOCC4)c3s2)CC1 [Pictilisib] (partner 1 µM)
Method in brief: (§1)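 After 5 days of treatment, lung cancer cells in 1536-well plates were fixed and stained in a single step (final 0.05% Triton X-100, 1% formaldehyde, 1 ug/ml Hoechst) and their nuclei counted on 4× images. Treatment had been applied by pin tool the day after seeding as one drug alone or as a fixed anchor-drug dose with five library-drug doses (not always all listed) in √10 steps. Relative viability is the nuclei count of treated wells divided by that of vehicle wells, and values are medians of duplicate plates.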

[2] = compound: CC1=C(C(=NN1)C)CC2=C(C3=C(S2)N(C(=O)N(C3=O)C)CC(C)C)C(=O)N4C[C@@H](CO4)O + COc1cccc2cc(-c3nc([C@H]4CC[C@H](C(=O)O)CC4)n4ncnc(N)c34)[nH]c12 [OSI-027] (partner 0.5 µM)
Method in brief: as §1

[3] = compound: CC1=C(C(=NN1)C)CC2=C(C3=C(S2)N(C(=O)N(C3=O)C)CC(C)C)C(=O)N4C[C@@H](CO4)O + Cc1cc(Nc2cc(N3CCN(C)CC3)nc(Sc3ccc(NC(=O)C4CC4)cc3)n2)n[nH]1 [Tozasertib] (partner 0.1 µM)
Method in brief: as §1

[4] = compound: CC1=C(C(=NN1)C)CC2=C(C3=C(S2)N(C(=O)N(C3=O)C)CC(C)C)C(=O)N4C[C@@H](CO4)O + C[C@]1(O)C[C@@H](c2nc(-c3ccc4ccc(-c5ccccc5)nc4c3)c3c(N)nccn32)C1 [Linsitinib] (partner 1 µM)
Method in brief: as §1

Cell Line	relative viability ([1]; first compound 0.0025 µM)	relative viability ([1]; first compound 0.007906 µM)	relative viability ([1]; first compound 0.025 µM)	relative viability ([1]; first compound 0.07906 µM)	relative viability ([1]; first compound 0.25 µM)	relative viability ([2]; first compound 0.0025 µM)	relative viability ([2]; first compound 0.007906 µM)	relative viability ([2]; first compound 0.025 µM)	relative viability ([2]; first compound 0.07906 µM)	relative viability ([2]; first compound 0.25 µM)	relative viability ([3]; first compound 0.0025 µM)	relative viability ([3]; first compound 0.007906 µM)	relative viability ([3]; first compound 0.025 µM)	relative viability ([3]; first compound 0.07906 µM)	relative viability ([3]; first compound 0.25 µM)	relative viability ([4]; first compound 0.0025 µM)	relative viability ([4]; first compound 0.007906 µM)	relative viability ([4]; first compound 0.025 µM)	relative viability ([4]; first compound 0.07906 µM)	relative viability ([4]; first compound 0.25 µM)
201T	0.708	0.704	0.688	0.653	0.679	0.843	0.79	0.72	0.642	0.71	1.05	0.92	0.915	0.904	1.03	1.06	0.988	1.03	1.1	1.06
A549	0.391	0.505	0.538	0.52	0.54	–	–	–	–	–	–	–	–	–	–	0.591	0.624	0.574	0.72	0.649
A-427	0.733	0.685	0.679	0.843	0.826	0.444	0.569	0.425	0.549	0.477	0.189	0.188	0.215	0.227	0.237	1.09	1.22	1.08	1.08	1.14
ABC-1	0.874	0.844	0.693	0.948	0.737	0.55	0.459	0.583	0.517	0.52	0.197	0.196	0.216	0.19	0.255	0.676	0.793	0.905	1.27	0.8
BEN	0.557	0.512	0.435	0.593	0.556	0.31	0.293	0.357	0.317	0.292	0.495	0.563	0.586	0.457	0.52	0.932	0.79	0.762	0.663	0.862
CAL-12T	0.502	0.57	–	0.588	0.518	0.746	0.928	0.538	0.661	0.806	0.334	0.315	0.366	0.332	0.304	0.899	0.853	0.845	0.807	1.11
COR-L23	0.806	0.794	0.522	0.589	0.635	0.876	0.761	0.68	0.678	0.793	0.155	0.163	0.172	0.18	0.163	0.975	0.859	0.601	0.788	0.713
COR-L 105	0.406	0.445	0.376	0.398	0.356	0.741	0.694	0.663	0.838	0.679	0.343	0.355	0.369	0.27	0.328	1.1	0.943	0.853	0.961	0.95
Calu-6	1.01	0.939	0.887	0.949	0.981	–	–	–	–	–	–	–	–	–	–	0.974	0.933	0.877	0.907	0.952
ChaGo-K-1	0.794	0.608	–	1.01	1.04	0.613	0.592	0.602	0.555	0.563	0.232	0.214	0.235	0.206	0.228	–	–	–	–	–
EBC-1	0.396	0.333	0.447	0.493	0.444	–	–	–	–	–	–	–	–	–	–	0.989	0.847	0.805	1.05	1.08
EKVX	0.544	0.485	0.457	0.449	0.42	0.677	0.712	0.666	0.716	0.592	0.398	0.404	0.432	0.394	0.422	0.978	1.05	0.939	1.05	1.04
EMC-BAC-2	0.512	0.573	0.521	0.505	0.594	0.416	0.403	0.394	0.43	0.416	0.268	0.296	0.272	0.3	0.317	0.816	0.892	0.821	0.826	0.881
EPLC-272H	0.317	0.293	0.29	0.314	0.384	0.275	0.225	0.312	0.314	0.308	0.267	0.227	0.324	0.259	0.609	1.24	1.13	1.32	0.986	1.27
H3255	0.523	0.473	0.43	0.45	0.62	0.609	0.565	0.62	0.604	0.602	0.803	0.768	0.657	0.56	0.59	1.06	0.881	0.909	1.01	1.11
HARA	0.473	0.372	0.369	0.506	0.283	0.548	0.565	0.513	0.506	0.489	0.129	0.125	0.105	0.111	0.112	1.08	1.01	0.919	0.924	1.01
HCC-15	0.76	0.911	0.846	0.782	0.856	0.707	0.705	0.691	0.737	0.784	0.458	0.519	0.435	0.469	0.448	0.932	0.937	0.871	0.942	0.855
HCC-44	0.615	0.689	0.616	0.6	0.616	0.676	0.376	0.413	0.516	0.747	0.888	0.746	0.915	0.882	1.13	0.855	0.713	0.629	0.684	0.74
HCC-78	0.217	0.218	0.172	0.169	0.194	0.388	0.38	0.343	0.357	0.374	0.415	0.406	0.544	0.453	0.284	0.483	0.548	0.587	0.505	0.377

Cell Line	relative viability ([1]; first compound 0.0025 µM)	relative viability ([1]; first compound 0.007906 µM)	relative viability ([1]; first compound 0.025 µM)	relative viability ([1]; first compound 0.07906 µM)	relative viability ([1]; first compound 0.25 µM)	relative viability ([2]; first compound 0.0025 µM)	relative viability ([2]; first compound 0.007906 µM)	relative viability ([2]; first compound 0.025 µM)	relative viability ([2]; first compound 0.07906 µM)	relative viability ([2]; first compound 0.25 µM)	relative viability ([3]; first compound 0.0025 µM)	relative viability ([3]; first compound 0.007906 µM)	relative viability ([3]; first compound 0.025 µM)	relative viability ([3]; first compound 0.07906 µM)	relative viability ([3]; first compound 0.25 µM)	relative viability ([4]; first compound 0.0025 µM)	relative viability ([4]; first compound 0.007906 µM)	relative viability ([4]; first compound 0.025 µM)	relative viability ([4]; first compound 0.07906 µM)	relative viability ([4]; first compound 0.25 µM)
HCC-366	0.139	0.141	0.25	0.193	0.212	0.937	1.16	1.18	1.09	0.933	0.491	0.11	0.153	0.114	0.109	0.593	0.771	0.59	0.62	0.712
HCC-827	1.24	1.04	0.896	0.863	1.06	0.812	0.793	0.756	0.759	0.952	0.475	0.437	0.393	0.428	0.397	1.01	1.01	0.96	0.949	0.963
HOP-62	0.719	0.876	0.903	0.787	0.825	0.896	0.849	0.756	0.763	0.909	0.312	0.376	0.344	0.393	0.407	1.01	0.967	0.889	1	0.817
IA-LM	0.393	0.272	0.395	0.347	0.375	–	–	–	–	–	–	–	–	–	–	0.686	0.509	0.552	0.525	0.94
LC-2-ad	0.558	0.426	0.716	0.622	0.467	0.952	0.782	0.973	0.934	0.821	0.53	0.462	0.494	0.44	0.426	0.848	0.928	0.9	0.869	0.843
LCLC-97TM1	0.188	0.268	0.22	0.182	0.199	0.665	0.515	0.513	0.548	0.564	0.207	0.277	0.219	0.209	0.285	0.183	0.206	0.205	0.163	0.159
LCLC-103H	0.682	0.615	0.704	0.517	0.721	0.529	0.466	0.467	0.496	0.512	0.544	0.564	0.505	0.551	0.543	1.07	1.15	1.18	0.835	1.12
LK-2	0.548	0.509	0.67	0.696	0.607	0.201	0.184	0.204	0.189	0.228	0.19	0.224	0.175	0.198	0.182	0.695	0.674	0.495	0.566	0.815
NCI-H522	–	–	–	–	–	0.804	0.624	0.608	0.45	0.546	0.516	0.537	0.545	0.419	0.418	–	–	–	–	–
NCI-H1299	0.772	0.958	0.931	0.944	0.945	–	–	–	–	–	–	–	–	–	–	1.03	0.875	0.926	1	1.06
NCI-H1563	0.649	0.68	0.649	0.672	0.735	0.802	0.76	0.738	0.779	0.741	–	–	–	–	–	1.15	1.24	1.26	1.23	1.23
NCI-H1623	–	–	–	–	–	0.525	0.414	0.447	0.424	0.506	0.463	0.494	0.467	0.398	0.49	–	–	–	–	–
NCI-H1648	–	–	–	–	–	0.238	0.247	0.303	0.253	0.267	0.462	0.542	0.754	0.37	0.458	–	–	–	–	–
NCI-H1650	0.575	0.587	0.714	0.67	0.708	0.788	0.657	0.755	0.817	0.631	0.482	0.406	0.386	0.503	0.446	–	–	–	–	–
NCI-H1703	0.223	0.224	0.264	0.256	0.242	–	–	–	–	–	–	–	–	–	–	0.691	0.253	0.638	0.448	0.804
NCI-H1792	0.33	0.263	0.273	0.193	0.246	0.739	0.816	0.717	0.645	0.652	–	–	–	–	–	0.722	0.541	0.487	0.402	0.344
NCI-H2170	0.228	0.293	0.298	0.341	0.297	0.736	0.792	0.687	0.726	0.681	0.67	0.734	0.736	0.599	0.8	–	–	–	–	–
NCI-H2342	–	–	–	–	–	0.588	0.584	0.624	0.618	0.587	0.599	0.421	0.481	0.558	0.552	–	–	–	–	–
SW 900	–	–	–	–	–	0.671	0.66	0.55	0.659	0.54	0.57	0.558	0.536	0.524	0.591	–	–	–	–	–
